Reference: publication PMC8000227 (Viruses, 2021)
Values joined by “and” are separate entries in the source; they are usually repeats but may differ in a detail not shown here. Equal entries are not always repeated.

Experiments:
[1] = target: covalently-crosslinked hexameric CA A14C/E45C/W184A/M185A (CA121) (Human immunodeficiency virus type 1 group M subtype B, UniProt P12493, A146C/E177C/M317A/W316A); experiment: Thermal shift assay (TSA) on CA hexamer stability; type: binding, HIV-1; settings: 20 µM compound, 7.5 µM CA121
HIV-1NL4-3 = experiment: microbe, parasite or virus in culture; type: cell-based; settings: TZM-GFP cells, HIV-1NL4-3 MOI 0.1, 48 h, mean ± SD; for EC50: Human immunodeficiency virus 1, read-out: EC50 (concentration of compound inhibiting HIV-1 replication by 50%)
[2] = Cytotoxicity assay (XTT) in TZM-GFP cells; type: cell-based; settings: human, mean ± SD, read-out: CC50 (concentration of compound causing 50% cell death)
[3] = Microsomal stability, human liver microsomes; type: in vitro ADME; settings: 0.5 mg/mL microsomal protein, NADPH, 37 °C; for half-life at 1 µM: human, liver microsomes, pH 7.4, 1 µM compound, read-out: Phase I metabolic stability t1/2, HLMs
[4] = Microsomal stability, mouse liver microsomes; type: in vitro ADME; settings: pH 7.4, 1 µM compound, 0.5 mg/mL microsomal protein, NADPH, 37 °C, read-out: Phase I metabolic stability t1/2, MLMs
[5] = Metabolites observed in the microsomal stability assay; type: in vitro ADME; settings: observed in liver microsomal stability assay
[6] = cited from earlier work
[7] = cited from earlier work; remark: listed apart in the source

Row | Compound | TSA ΔTm (change of CA crosslinked hexamer melting temperature vs DMSO) [1] | EC50 (HIV-1NL4-3) [µM] | CC50 at 72 h [2] [µM] | Phase I metabolic stability t1/2, HLMs ([3]; 1 µM compound) [min] | half-life at 1 µM [3] [min] | half-life at 1 µM [4] [min] | Metabolite (s) [5] | EC50 (concentration of compound inhibiting HIV-1 replication by 50%) (HIV-1NL4-3) | half-life (t1/2) in human liver microsomes (HLMs) [6] | half-life (t1/2) in mouse liver microsomes (MLMs) [7]
1 | O=C(Cc1c[nH]c2ccc(O)cc12)N[C@@H](Cc1ccccc1)c1ncccc1-c1ccc(Cl)cc1 [Compound 15] | 8.7 °C and 8.7 ± 0.3 °C | 0.31 ± 0.07 | 44 ± 1 | 27.2 ± 0.5 | 27 | 3.1 ± 0.3 | – | – | – | –
2 | COc1ccc2[nH]cc(CC(=O)N[C@@H](Cc3ccccc3)c3ncccc3-c3ccc(Cl)cc3)c2c1 [Compound 14] | 7.8 ± 0.3 °C | 1.4 ± 0.7 | 39 ± 0.2 | – | 1.7 ± 0.02 | 0.9 ± 0.004 | 15 | – | – | –
3 | Cc1[nH]c2ccccc2c1CC(=O)N[C@@H](Cc1ccccc1)c1ncccc1-c1ccccc1 [Compound 9] | 4.5 °C and 4.5 ± 0.0 °C | 2.6 ± 0.4 | < 50 | – | 1.2 ± 0.04 | 1 ± 0.01 | – | – | – | –
4 | O=C(Cn1cccn1)N[C@H](Cc1ccccc1)c1ncccc1-c1ccccc1 [Compound 6] | 0.3 ± 0.1 °C | > 15 | > 50 | – | – | – | – | – | – | –
5 | O=C(Cn1ncc2ccccc21)N[C@H](Cc1ccccc1)c1ncccc1-c1cccc2cn[nH]c12 [Compound 7] | 0 ± 0 °C | > 20 | > 50 | – | – | – | – | – | – | –
6 | Cc1[nH]c2ccccc2c1CC(=O)N[C@@H](Cc1ccccc1)c1ncccc1-c1cccc(C#N)c1 [Compound 12] | −0.2 ± 0.07 °C | > 20 | > 50 | – | – | – | – | – | – | –
7 | O=C(Cc1c[nH]c2ccccc12)N[C@@H](Cc1ccccc1)C(=O)N1CCc2ccccc21 [Compound 2] | −1.0 °C | > 20 | > 100 | – | – | – | – | – | – | –
8 | Cc1[nH]c2ccccc2c1CC(=O)N[C@H](Cc1ccccc1)c1ncccc1-c1ccccc1 [Compound 4] | – | > 20 | < 50 | – | – | – | – | completely inactive | – | –
9 | Cc1[nH]c2ccccc2c1CC(=O)N[C@@H](Cc1ccccc1)c1nccn1-c1ccccc1 [Compound 20] | 3.9 °C and 3.9 ± 0.4 °C | 3.7 ± 0.8 | > 50 | – | 0.9 ± 0.004 | 0.7 ± 0.01 | – | – | – | –
10 | O=C(Cn1cccn1)N[C@H](Cc1ccccc1)c1ncccc1-c1cccc2cn[nH]c12 [Compound 8] | 0.1 ± 0.1 °C | > 20 | > 50 | – | – | – | – | – | – | –
11 | CCn1cc(CC(=O)N[C@@H](Cc2ccccc2)c2ncccc2-c2ccc(Cl)cc2)c2ccccc21 [Compound 16] | 6.6 ± 0.2 °C | 2.7 ± 0.2 | 41 ± 0.1 | – | 1.4 ± 0.02 | 1.4 ± 0.02 | 15 | – | – | –
12 | O=C(Cc1c[nH]c2ccccc12)N[C@@H](Cc1ccccc1)c1ncccc1-c1ccc(Cl)cc1 [Compound 13] | 7.7 ± 0.2 °C | 0.79 ± 0.25 | 22 ± 2 | – | – | – | – | – | – | –
13 | COc1ccc2[nH]cc(CC(=O)N[C@@H](Cc3ccccc3)c3nccn3-c3ccc(I)cc3)c2c1 [Compound 25] | 2.7 ± 0.1 °C | 3.3 ± 0.2 | > 100 | – | – | – | – | – | – | –
14 | COc1ccc2[nH]cc(CC(=O)N[C@@H](Cc3ccccc3)c3nccn3-c3ccc(Cl)cc3)c2c1 [Compound 23] | 4.0 ± 0.3 °C | 3.3 ± 0.03 | 93 ± 2 | – | – | – | – | – | – | –
15 | Cc1[nH]c2ccccc2c1CC(=O)N[C@@H](Cc1ccccc1)C(=O)N1CCc2ccccc21 [Compound 1] | −0.5 °C | > 20 | > 100 | – | – | – | – | – | – | –
16 | O=C(Cn1ncc2ccccc21)N[C@H](Cc1ccccc1)c1ncccc1-c1ccccc1 [Compound 5] | 0.1 ± 0.07 °C | > 20 | < 50 | – | – | – | – | – | – | –
17 | COc1ccc2[nH]cc(CC(=O)N[C@@H](Cc3ccccc3)c3nccn3-c3ccc(Br)cc3)c2c1 [Compound 24] | 2.8 ± 0.3 °C | 3.5 ± 0.3 | > 100 | – | – | – | – | – | – | –
18 | CCn1cc(CC(=O)N[C@@H](Cc2ccccc2)c2ncccc2-c2ccc(Cl)cc2)c2cc(OC)ccc21 [Compound 17] | 5.9 ± 0.2 °C | 3.6 ± 0.2 | 48 ± 6 | – | 1.3 ± 0.01 | 1.3 ± 0.005 | 15 and 14 | – | – | –
19 | O=C(Cn1ncc2ccccc21)N[C@@H](Cc1ccccc1)c1ncccc1-c1ccccc1 [Compound 10, (S)-2-(1H-indazol-1-yl)-N-(2-phenyl-1-(3-phenylpyridin-2-yl)ethyl)acetamide] | – | 8.8 ± 0.4 | < 50 | – | – | – | – | low micromolar | – | –
20 | O=C(Cc1c[nH]c2ccccc12)N[C@@H](Cc1ccccc1)C(=O)N1CCCc2ccccc21 [Compound 3] | 1.8 ± 1.2 °C | > 20 | > 50 | – | – | – | – | – | – | –
21 | O=C(Cn1cccn1)N[C@@H](Cc1ccccc1)c1ncccc1-c1ccccc1 [Compound 11, (S)-N-(2-phenyl-1-(3-phenylpyridin-2-yl)ethyl)-2-(1H-pyrazol-1-yl)acetamide] | – | 5.1 ± 0.7 | > 50 | – | – | – | – | low micromolar | – | –
22 | Cc1[nH]c2ccccc2c1CC(=O)N[C@@H](Cc1ccccc1)C(=O)N(C)c1ccccc1 [PF74, reference compound] | 6.9 °C and 6.9 ± 0.5 °C | 0.7 ± 0.07 | – | – | – | – | – | – | less than 1 min | less than 1 min
23 | CCn1cc(CC(=O)N[C@@H](Cc2ccccc2)c2ncccc2-c2ccc(Br)cc2)c2ccccc21 [Compound 19] | 6.3 ± 0.1 °C | 3.2 ± 0.3 | 41 ± 2 | – | – | – | – | – | – | –
24 | COc1ccc2[nH]cc(CC(=O)N[C@@H](Cc3ccccc3)c3ncccc3-c3ccc(Br)cc3)c2c1 [Compound 18] | 6.3 ± 0.6 °C | 2.1 ± 0.8 | 40 ± 4 | – | – | – | – | – | – | –
25 | Cc1[nH]c2ccccc2c1CC(=O)N[C@@H](Cc1ccccc1)c1nccn1-c1ccc(C#N)cc1 [Compound 21] | 2.2 ± 0.0 °C | 6.6 ± 0.4 | > 50 | – | – | – | – | – | – | –
26 | Cc1[nH]c2ccccc2c1CC(=O)N[C@@H](Cc1ccccc1)c1nccn1-c1ccc(-c2nnn[nH]2)cc1 [Compound 22] | −0.3 ± 0.1 °C | > 20 | > 50 | – | 1.3 ± 0.01 | 0.9 ± 0.01 | – | no antiviral activity | – | –
